Measurements published in article PMC4988499, “Pinpointing a Mechanistic Switch Between Ketoreduction and “Ene” Reduction in Short‐Chain Dehydrogenases/Reductases” (Angewandte Chemie (Weinheim an Der Bergstrasse, Germany), 2016).

What was measured:
[1] = target: T1, IPR (isopiperitenone reductase) (Mentha x piperita, UniProt Q6WAU1); test: X-ray crystal structure; format: binding
T1 construct: recombinant; NADP+ scavenged from host cells; catalytic Glu238

[2] = target: T2, MNMR ((−)‐menthone:(+)‐neomenthol reductase) (Mentha x piperita, UniProt Q06ZW2); test: X-ray crystal structure (soaking); format: binding; conditions: coenzyme site
T2 construct: recombinant; catalytic Tyr244
T2 sequence (Q06ZW2 entry or part of it): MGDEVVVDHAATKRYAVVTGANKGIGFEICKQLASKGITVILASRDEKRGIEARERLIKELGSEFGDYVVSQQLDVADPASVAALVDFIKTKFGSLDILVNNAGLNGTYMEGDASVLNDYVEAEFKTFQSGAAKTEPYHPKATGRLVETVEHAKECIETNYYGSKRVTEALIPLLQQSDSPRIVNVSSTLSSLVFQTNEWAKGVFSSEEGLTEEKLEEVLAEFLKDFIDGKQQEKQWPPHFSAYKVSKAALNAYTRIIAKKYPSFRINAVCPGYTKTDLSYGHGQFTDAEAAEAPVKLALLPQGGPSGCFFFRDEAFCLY

T1 sequence (Q6WAU1 whole entry): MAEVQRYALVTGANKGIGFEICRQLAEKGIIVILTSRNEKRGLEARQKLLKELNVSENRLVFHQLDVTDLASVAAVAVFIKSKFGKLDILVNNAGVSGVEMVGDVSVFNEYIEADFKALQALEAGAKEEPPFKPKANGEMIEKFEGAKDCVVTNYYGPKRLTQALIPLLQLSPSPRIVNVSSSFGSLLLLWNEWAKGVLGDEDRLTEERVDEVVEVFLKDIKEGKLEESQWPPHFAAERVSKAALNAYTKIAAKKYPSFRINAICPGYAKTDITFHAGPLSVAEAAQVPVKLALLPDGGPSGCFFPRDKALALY

Row | SMILES | X-ray crystal structure ([1]; scavenged from expression host) | X-ray crystal structure (soaking) [2] | X-ray crystal structure ([1]; active site, non-substrate, with NADP+)
1 | NC(=O)c1ccc[n+]([C@@H]2O[C@H](COP(=O)(O)OP(=O)(O)OC[C@H]3O[C@@H](n4cnc5c(N)ncnc54)[C@H](OP(=O)(O)O)[C@@H]3O)[C@@H](O)[C@H]2O)c1 [NADP^+] | clear density in the F0−Fc map for NADP^+ | A coenzyme‐bound MNMR structure was obtained by soaking crystals with NADP^+ | –
2 | CC1=C(C=O)C(C)(C)CCC1 [β‐cyclocitral] | – | – | The IPR–β‐cyclocitral co‐crystal structure shows the ligand binds in a non‐active conformation
